Experimental data reported in patent US11008304B2, “Tetrazole containing apoptosis signal-regulating kinase 1 inhibitors and methods of use thereof” (ENANTA PHARMACEUTICALS, INC., priority 2018, dated 2021).

These compounds were tested against ASK1 kinase (Homo sapiens (Human), UniProt Q99683) (assay: HTRF KinEASE assay of ASK1 kinase activity inhibition). Conditions: 5 nM ASK1, 1 uM STK3 peptide substrate, 100 uM ATP, TR-FRET readout.
Chain of ASK1 kinase (Q99683 whole entry): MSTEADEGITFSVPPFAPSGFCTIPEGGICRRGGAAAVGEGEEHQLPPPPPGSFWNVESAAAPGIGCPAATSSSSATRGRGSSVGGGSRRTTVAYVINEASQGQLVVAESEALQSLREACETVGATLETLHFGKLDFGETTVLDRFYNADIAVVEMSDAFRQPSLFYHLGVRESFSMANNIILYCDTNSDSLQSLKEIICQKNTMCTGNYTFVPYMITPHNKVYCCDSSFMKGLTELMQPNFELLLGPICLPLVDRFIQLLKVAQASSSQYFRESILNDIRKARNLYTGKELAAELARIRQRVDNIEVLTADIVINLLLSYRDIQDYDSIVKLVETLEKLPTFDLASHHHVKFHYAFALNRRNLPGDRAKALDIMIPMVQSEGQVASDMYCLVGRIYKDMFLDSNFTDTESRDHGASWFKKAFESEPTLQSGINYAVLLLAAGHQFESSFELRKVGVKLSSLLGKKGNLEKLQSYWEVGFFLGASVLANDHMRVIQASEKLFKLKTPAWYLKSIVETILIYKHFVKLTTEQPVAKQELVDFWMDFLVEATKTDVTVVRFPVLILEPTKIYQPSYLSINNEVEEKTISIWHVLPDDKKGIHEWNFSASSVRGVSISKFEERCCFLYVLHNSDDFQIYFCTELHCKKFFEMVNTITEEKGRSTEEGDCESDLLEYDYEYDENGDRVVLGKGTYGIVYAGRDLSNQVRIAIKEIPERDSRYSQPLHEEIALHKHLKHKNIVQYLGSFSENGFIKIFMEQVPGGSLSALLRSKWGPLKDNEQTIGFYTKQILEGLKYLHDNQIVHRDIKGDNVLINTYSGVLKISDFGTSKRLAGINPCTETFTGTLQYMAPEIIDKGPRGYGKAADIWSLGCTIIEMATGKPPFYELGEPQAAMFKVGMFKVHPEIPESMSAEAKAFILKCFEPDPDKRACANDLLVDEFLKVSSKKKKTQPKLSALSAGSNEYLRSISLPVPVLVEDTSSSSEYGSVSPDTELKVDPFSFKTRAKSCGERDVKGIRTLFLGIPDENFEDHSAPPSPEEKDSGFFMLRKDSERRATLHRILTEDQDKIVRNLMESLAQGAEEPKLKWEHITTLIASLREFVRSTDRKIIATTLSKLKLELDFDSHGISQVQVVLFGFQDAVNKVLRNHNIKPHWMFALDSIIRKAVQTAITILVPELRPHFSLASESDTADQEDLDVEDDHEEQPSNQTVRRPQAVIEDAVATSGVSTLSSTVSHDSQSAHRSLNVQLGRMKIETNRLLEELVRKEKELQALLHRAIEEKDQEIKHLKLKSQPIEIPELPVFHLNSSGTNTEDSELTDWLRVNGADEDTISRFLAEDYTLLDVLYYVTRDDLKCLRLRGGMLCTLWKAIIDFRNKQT
Type: biochemical
Method: The ability (IC50) of compounds to inhibit ASK1 kinase activity was determined by HTRF® KinEASE™ Assay System. ASK1 was purchased from Thermofisher (Catalogue #PV4011), ATP was purchased from Sigma (Catalogue #A7699), HTRF® KinEASE™ Assay System was obtained from Cisbio (Bedford, Mass.). ½ Area plate was purchased from Perkin Elmer (Catalogue ##6005560). HTRF® KinEASE™-STK is a generic method for measuring serine/threonine kinase activities using a time-resolved fluorescence resonance energy transfer (TR-FRET) immunoassay. The IC50 value for each compound was determined in the presence of compound (various concentration from 0 to 10 μM) and a fixed amount of ATP and peptide substrates. The test compound, 1 uM STK3 peptide substrate, and 5 nM of ASK1 kinase are incubated with kinase reaction buffer containing 50 mM HEPES pH 7.5, 0.01% BRIJ-35, 10 mM MgCl2, and 1 mM EGTA for 30 minutes. 100 uM ATP is added to start kinase reaction and incubated for 3 hours. The STK3-antibody labeled with Eu^3+-Cryptate and 125 nM streptavidin-XL665 are mixed in a single addition with stop reagents provided by the Cisbio kit used to stop the kinase reaction. Fluorescence is detected using an Envision Multilabeled 2014 reader from PerkinElmer. The Fluorescence is measured at 615 nm (Cryptate) and 665 nm (XL665) and a ratio of 665 nm/615 nm is calculated for each well. The resulting TR-FRET is proportional to the phosphorylation level. Staurosporine was used as the positive control. IC50 was determined by XLfit 5.3. By using above method, the inhibition of ASK1 was tested for the compound of formula (I). IC50 ranges are as follows: A<1 nM; 1 nM<B<10 nM; 10 nM<C<100 nM; 100 nM<D<1 μM; E>1 μM.
`Cc1cc(F)c(C(=O)Nc2cccc(-c3nnnn3[C@H](C)CO)n2)cc1-c1cnn(C(F)(F)F)c1` [Example 57] gave an IC50 of 0.001 to 0.01 µM.
`Cc1cc(F)c(C(=O)Nc2cccc(-c3nnnn3C(C)C)n2)cc1-c1ccn(C(C)C)n1` [Example 58] showed an IC50 of 0.01 to 0.1 µM.
`Cc1cc(F)c(C(=O)Nc2cccc(-n3nnnc3C(C)C)n2)cc1-c1ccn(C(C)C)n1` [Example 59] was tested, and the IC50 was > 1 µM.
For `Cc1cc(F)c(C(=O)Nc2cccc(-c3nnnn3[C@H](C)CO)n2)cc1-c1ccn(C(C)C)n1` [Example 60], the IC50 was 0.01 to 0.1 µM.
Compound `Cc1cc(F)c(C(=O)Nc2cccc(-c3nnnn3C(C)C)n2)cc1-c1cn(C(C)C)cn1` [Example 61] has an IC50 of 0.01 to 0.1 µM.
For `Cc1cc(F)c(C(=O)Nc2cccc(-n3nnnc3C(C)C)n2)cc1-c1cn(C(C)C)cn1` [Example 62], the IC50 was > 1 µM.
`Cc1cc(F)c(C(=O)Nc2cccc(-c3nnnn3[C@H](C)CO)n2)cc1-c1cn(C(C)C)cn1` [Example 63] gave an IC50 of 0.01 to 0.1 µM.
Compound `Cc1cc(F)c(C(=O)Nc2cccc(-c3nnnn3C(C)C)n2)cc1-c1ccccn1` [Example 64] has an IC50 of 0.1 to 1 µM.
In the case of `Cc1cc(F)c(C(=O)Nc2cccc(-c3nnnn3C(C)C)n2)cc1-c1cccnc1` [Example 65], the IC50 is reported as 0.001 to 0.01 µM.
With `Cc1cc(F)c(C(=O)Nc2cccc(-c3nnnn3C(C)C)n2)cc1-c1ccncc1` [Example 66] the IC50 was 0.01 to 0.1 µM.
`Cc1ncc(-c2cc(C(=O)Nc3cccc(-c4nnnn4C(C)C)n3)c(F)cc2C)s1` [Example 67] was tested, and the IC50 was 0.01 to 0.1 µM.
With `Cc1nc(-c2cc(C(=O)Nc3cccc(-c4nnnn4C(C)C)n3)c(F)cc2C)cs1` [Example 68] the IC50 was 0.1 to 1 µM.
`Cc1cc(F)c(C(=O)Nc2cccc(-c3nnnn3C(C)C)n2)cc1-c1ccc(C2CC2)s1` [Example 69] was tested, and the IC50 was 0.01 to 0.1 µM.
`Cc1cc(F)c(C(=O)Nc2cccc(-c3nnnn3[C@H](C)CO)n2)cc1-c1ccc(C2CC2)s1` [Example 70] was tested, and the IC50 was 0.001 to 0.01 µM.
Compound `Cc1cc(F)c(C(=O)Nc2cccc(-c3nnnn3C(C)C)n2)cc1-c1cc(C2CC2)on1` [Example 71] has an IC50 of 0.01 to 0.1 µM.
In the case of `COc1cc(C)c(-c2cnn(C)c2)cc1C(=O)Nc1cccc(-c2nnnn2C(C)C)n1` [Example 73], the IC50 is reported as 0.001 to 0.01 µM.
`COc1cc(C)c(-c2cnn(C)c2)cc1C(=O)Nc1cccc(-n2nnnc2C(C)C)n1` [Example 74] showed an IC50 of 0.001 to 0.01 µM.
With `COc1cc(C)c(-c2cnn(C3CC3)c2)cc1C(=O)Nc1cccc(-c2nnnn2C(C)C)n1` [Example 75] the IC50 was < 0.001 µM.
With `COc1cc(C)c(-c2cnn(C3CC3)c2)cc1C(=O)Nc1cccc(-n2nnnc2C(C)C)n1` [Example 76] the IC50 was < 0.001 µM.
For `COc1cc(C)c(-c2cnn(C3CC3)c2)cc1C(=O)Nc1cccc(-c2nnnn2[C@H](C)CO)n1` [Example 77, 5-(1-cyclopropyl-1H-pyrazol-4-yl)-N-(6-[1-[(2R)-1-hydroxypropan-2-yl]-1H-1,2,3,4-tetrazol-5-yl]pyridin-2-yl)-2-methoxy-4-methylbenzamide], the IC50 was < 0.001 µM.
Compound `COc1cc(C)c(-c2ccn(C(C)C)n2)cc1C(=O)Nc1cccc(-c2nnnn2C(C)C)n1` [Example 78] has an IC50 of 0.001 to 0.01 µM.
In the case of `COc1cc(C)c(-c2ccn(C(C)C)n2)cc1C(=O)Nc1cccc(-n2nnnc2C(C)C)n1` [Example 79], the IC50 is reported as 0.01 to 0.1 µM.
In the case of `COc1cc(C)c(-c2ccn(C(C)C)n2)cc1C(=O)Nc1cccc(-c2nnnn2[C@H](C)CO)n1` [Example 80], the IC50 is reported as < 0.001 µM.
`Cc1cc(F)c(C(=O)Nc2cccc(-c3nnnn3[C@H]3CCOC3)n2)cc1-c1cnn(C2CC2)c1` [Example 81] was tested, and the IC50 was 0.001 to 0.01 µM.
In the case of `Cc1cc(F)c(C(=O)Nc2cccc(-c3nnnn3[C@@H]3CCOC3)n2)cc1-c1cnn(C2CC2)c1` [Example 82], the IC50 is reported as 0.001 to 0.01 µM.
For `Cc1cc(F)c(C(=O)Nc2cccc(-c3nnnn3[C@H]3CCC[C@@H]3O)n2)cc1-c1cnn(C2CC2)c1` [Example 83], the IC50 was 0.001 to 0.01 µM.
In the case of `Cc1cc(F)c(C(=O)Nc2cccc(-c3nnnn3[C@@H]3CCC[C@@H]3O)n2)cc1-c1cnn(C2CC2)c1` [Example 84], the IC50 is reported as 0.001 to 0.01 µM.
